# In patent US20170002055A1, “Novel peptides and combination of peptides for use in immunotherapy against ovarian cancer and other cancers” (immatics biotechnologies GmbH, priority 2015, published 2017):
# Columns and labels:
# CD8+ T cells = assay: In vitro immunogenicity: priming of CD8+ T cells with artificial APCs loaded with peptide/MHC and anti-CD28, multimer readout; type: cell-based, human; conditions: for Wells positive [%]: HLA-A*02 restricted peptides, percentage of positive wells; for donors: HLA-A*02, percentage of positive donors; for wells: HLA-A*02, percentage of positive wells
# Excerpt: In order to obtain information regarding the immunogenicity of the TUMAPs of the present invention, the inventors performed investigations using an in vitro T-cell priming assay based on repeated stimulations of CD8+ T cells with artificial antigen presenting cells (aAPCs) loaded with peptide/MHC complexes and anti-CD28 antibody.
# In order to perform in vitro stimulations by artificial antigen presenting cells loaded with peptide-MHC complex (pMHC) and anti-CD28 antibody, the inventors first isolated CD8+ T cells from fresh HLA-A*02 leukapheresis products via positive selection using CD8 microbeads (Miltenyi Biotec, Bergisch-Gladbach, Germany) of healthy donors obtained from the University clinics Mannheim, Germany, after informed consent.
# PBMCs and isolated CD8+ lymphocytes were incubated in T-cell medium (TCM) until use consisting of RPMI-Glutamax (Invitrogen, Karlsruhe, Germany) supplemented with 10% heat inactivated human AB serum (PAN-Biotech, Aidenbach, Germany), 100 U/ml Penicillin/100 μg/ml Streptomycin (Cambrex, Cologne, Germany), 1 mM sodium pyruvate (CC Pro, Oberdorla, Germany), 20 μg/ml Gentamycin (Cambrex). 2.5 ng/ml IL-7 (PromoCell, Heidelberg, Germany) and 10 U/ml IL-2 (Novartis Pharma, Nürnberg, Germany) were also added to the TCM at this step.
# Generation of pMHC/anti-CD28 coated beads, T-cell stimulations and readout was performed in a highly defined in vitro system using four different pMHC molecules per stimulation condition and 8 different pMHC molecules per readout condition.
# The purified co-stimulatory mouse IgG2a anti human CD28 Ab 9.3 (Jung et al., 1987) was chemically biotinylated using Sulfo-N-hydroxysuccinimidobiotin as recommended by the manufacturer (Perbio, Bonn, Germany). Beads used were 5.6 μm diameter streptavidin coated polystyrene particles (Bangs Laboratories, Illinois, USA).
# pMHC used for positive and negative control stimulations were A*0201/MLA-001 (peptide […] (SEQ ID NO. 664) from modified Melan-A/MART-1) and A*0201/DDX5-001 ([…] from DDX5, SEQ ID NO. 665), respectively.
# 800.000 beads/200 μl were coated in 96-well plates in the presence of 4×12.5 ng different biotin-pMHC, washed and 600 ng biotin anti-CD28 were added subsequently in a volume of 200 μl. Stimulations were initiated in 96-well plates by co-incubating […] CD8+ T cells with 2×10^5 washed coated beads in 200 μl TCM supplemented with 5 ng/ml IL-12 (PromoCell) for 3 days at 37° C. Half of the medium was then exchanged by fresh TCM supplemented with 80 U/ml IL-2 and incubating was continued for 4 days at 37° C. This stimulation cycle was performed for a total of three times. For the pMHC multimer readout using 8 different pMHC molecules per condition, a two-dimensional combinatorial coding approach was used as previously described (Andersen et al., 2012) with minor modifications encompassing coupling to 5 different fluorochromes. Finally, multimeric analyses were performed by staining the cells with Live/dead near IR dye (Invitrogen, Karlsruhe, Germany), CD8-FITC antibody clone SK1 (BD, Heidelberg, Germany) and fluorescent pMHC multimers. For analysis, a BD LSRII SORP cytometer equipped with appropriate lasers and filters was used. Peptide specific cells were calculated as percentage of total CD8+ cells. Evaluation of multimeric analysis was done using the FlowJo software (Tree Star, Oregon, USA). In vitro priming of specific multimer+ CD8+ lymphocytes was detected by comparing to negative control stimulations.
# HLA-A*02:01 = HLA-A*02:01 (Homo sapiens, UniProt P04439, D140Y/D185E/D98H/E176V/E277Q/G131W/G231S/I119V/I121R/I166T/I218V/L300P/L318F/N151K/N90K/P208A/P217A/Q86G/Q94H/R138H/R169H/T345S); assay: MHC binding assay (UV-ligand exchange, β2m ELISA, peptide exchange yield); conditions: MHC class I binding score; binding to HLA-A*02:01 ranged by peptide exchange yield (UV-ligand exchange, β2m ELISA)
# Outline: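 Binding is expressed as peptide exchange yield: stabilized MHC complexes were quantified by β2m ELISA, with a 450 nm TMB read-out on streptavidin-coated plates. Complexes came from UV-ligand exchange, where UV irradiation cleaves a photolabile peptide so the candidate peptide can load.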
Substance,Wells positive [%] (CD8+ T cells),Peptide exchange (HLA-A*02:01),donors (CD8+ T cells),wells (CD8+ T cells)
2 (SLLEADPFL; listed as Homo sapiens) [compound 2],“+” (<20% = +),“+++” (≧50 = +++),,
3 (SLASKLTTL; listed as Homo sapiens) [compound 3],“+” (<20% = +),“++++” (≧75% = ++++),,
5 (HLTEVYPEL; listed as Homo sapiens) [compound 5],“+++” (50%-69% = +++),“+++” (≧50 = +++),,
7 (SLVGLLLYL; listed as Homo sapiens) [compound 7],“++” (20%-49% = ++),“++++” (≧75% = ++++),,
8 (FTLGNVVGMYL; listed as Homo sapiens) [compound 8],“+” (<20% = +),“++++” (≧75% = ++++),,
11 (KIFEMLEGV; listed as Homo sapiens) [compound 11],“+” (<20% = +),“+++” (≧50 = +++),,
17 (GLLPGDRLVSV; listed as Homo sapiens) [compound 17],“++” (20%-49% = ++),“+++” (≧50 = +++),,
19 (FMVDNEAIYDI; listed as Homo sapiens) [compound 19],“++” (20%-49% = ++),“++++” (≧75% = ++++),,
36 (YVLEDLEVTV; listed as Homo sapiens) [compound 36],“+” (<20% = +),“++” (≧20% = ++),,
38 (FLLEDDIHVS; listed as Homo sapiens) [compound 38],“+” (<20% = +),“+++” (≧50 = +++),,
40 (TLLVKVFSV; listed as Homo sapiens) [compound 40],“++” (20%-49% = ++),“+++” (≧50 = +++),,
48 (ALAELYEDEV; listed as Homo sapiens) [compound 48],“+” (<20% = +),“+++” (≧50 = +++),,
49 (YLPAVFEEV; listed as Homo sapiens) [compound 49],“++” (20%-49% = ++),“+++” (≧50 = +++),,
56 (KLYEGIPVLL; listed as Homo sapiens) [compound 56],“+” (<20% = +),“++++” (≧75% = ++++),,
60 (SLTIDGIYYV; listed as Homo sapiens) [compound 60],“++++” (> = 70% = ++++),“++++” (≧75% = ++++),,
61 (FLQGYQLHL; listed as Homo sapiens) [compound 61],“++” (20%-49% = ++),“++++” (≧75% = ++++),,
79 (SLFIGEKAVLL; listed as Homo sapiens) [compound 79],“+” (<20% = +),“+++” (≧50 = +++),,
108 (ALFPGVALLLA; listed as Homo sapiens) [compound 108],“++” (20%-49% = ++),“++++” (≧75% = ++++),,
113 (GLLPTPLFGV; listed as Homo sapiens) [compound 113],“+” (<20% = +),“+++” (≧50 = +++),,
118 (KLIDNNINV; listed as Homo sapiens) [compound 118],“+” (<20% = +),“+++” (≧50 = +++),,
141 (YLDFSNNRL; listed as Homo sapiens) [compound 141],“+” (<20% = +),“++” (≧20% = ++),,
143 (LLLDITPEI; listed as Homo sapiens) [compound 143],“+” (<20% = +),“++++” (≧75% = ++++),,

Substance,Wells positive [%] (CD8+ T cells),Peptide exchange (HLA-A*02:01),donors (CD8+ T cells),wells (CD8+ T cells)
150 (RLWEEGEELEL; listed as Homo sapiens) [compound 150],“+” (<20% = +),“+++” (≧50 = +++),,
152 (ILFEDIFDV; listed as Homo sapiens) [compound 152],“++” (20%-49% = ++),“+++” (≧50 = +++),,
157 (SLNDEVPEV; listed as Homo sapiens) [compound 157],“+++” (50%-69% = +++),“++” (≧20% = ++),,
166 (YLNHLEPPV; listed as Homo sapiens) [compound 166],“++++” (> = 70% = ++++),“+++” (≧50 = +++),,
191 (LLQEGQALEYV; listed as Homo sapiens) [compound 191],“+++” (50%-69% = +++),“++” (≧20% = ++),,
198 (KTINKVPTV; listed as Homo sapiens) [compound 198],“++” (20%-49% = ++),“+++” (≧50 = +++),,
199 (ALQDVPLSSV; listed as Homo sapiens) [compound 199],“+” (<20% = +),“+++” (≧50 = +++),,
215 (QLINHLHAV; listed as Homo sapiens) [compound 215],“++” (20%-49% = ++),“+++” (≧50 = +++),,
242 (AIAYILQGV; listed as Homo sapiens) [compound 242],“+++” (50%-69% = +++),“++” (≧20% = ++),,
247 (VLLPNDLLEKV; listed as Homo sapiens) [compound 247],“+” (<20% = +),“+++” (≧50 = +++),,
283 (ALYIGDGYVIHLA; listed as Homo sapiens) [compound 283],,“+++” (≧50 = +++),+++ (50%-69 = +++),+ (<20% = +)
319 (SLEPQIQPV; listed as Homo sapiens) [compound 319],“+” (<20% = +),“++” (≧20% = ++),,
384 (ILFANPNIFV; listed as Homo sapiens) [compound 384],“+” (<20% = +),“+++” (≧50 = +++),,
395 (ALALGGIAVV; listed as Homo sapiens) [compound 395],“+++” (50%-69% = +++),“++++” (≧75% = ++++),,
443 (GLWEIENNPTV; listed as Homo sapiens) [compound 443],“+” (<20% = +),“+++” (≧50 = +++),,
446 (QLIPALAKV; listed as Homo sapiens) [compound 446],“++” (20%-49% = ++),“+++” (≧50 = +++),,
648 (LLWGNAIFL; listed as Homo sapiens) [compound 648],,,+++ (50%-69 = +++),++ (20%-49% = ++)
652 (TLWYRAPEV; listed as Homo sapiens) [compound 652],,,++++ (> = 70% = ++++),+++ (50%-69 = +++)
659 (ILFPDIIARA; listed as Homo sapiens) [compound 659],,,+++ (50%-69 = +++),+ (<20% = +)
662 (KIQEILTQV; listed as Homo sapiens) [compound 662],,,+++ (50%-69 = +++),+ (<20% = +)
663 (KIQEMQHFL; listed as Homo sapiens) [compound 663],,,+++ (50%-69 = +++),+ (<20% = +)
